Assay results published in ChEMBL document CHEMBL1201862, “PubChem BioAssay data set” (2004).
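A five-concentration, 48-hour dose response in 96-well plates underlies each endpoint, interpolated linearly between surrounding concentrations. At the GI50, growth is halved.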 Activity calls are given as the source filed them. Rule as the data show it: active = GI50 up to about 1.1 µM and inactive = higher. Bridge positions count the residues as written; N and C are the ends. Square brackets hold non-standard residues; d marks the D form. Peptide text beside a SMILES is read from it. * marks the point of attachment. Cbz = O=C(OCc1ccccc1)*; Dab = NCC[CH](N)C(=O)O; Bn = c1ccc(C*)cc1

Assays:
Test in all cases: inhibition of tumour cell growth, NCI panel, 48 h
ACHN = tested on: ACHN
COLO 205 = tested on: COLO 205
EKVX = tested on: EKVX
HL-60 = tested on: HL-60
HOP-62 = tested on: HOP-62
HOP-92 = tested on: HOP-92
HT-29 = tested on: HT-29
Hs-578T = tested on: Hs-578T
IGROV-1 = tested on: IGROV-1
KM12 = tested on: KM12
MDA-MB-231 = tested on: MDA-MB-231
NCI-H226 = tested on: NCI-H226
OVCAR-3 = tested on: OVCAR-3
RPMI-8226 = tested on: RPMI-8226
SK-OV-3 = tested on: SK-OV-3
SN12C = tested on: SN12C
U-251 = tested on: U-251
UACC-257 = tested on: UACC-257
SNB-75 = tested on: SNB-75
A498 = tested on: A498

Row | Compound | GI50 (ACHN) | GI50 (COLO 205) | GI50 (EKVX) | GI50 (HL-60) | GI50 (HOP-62) | GI50 (HOP-92) | GI50 (HT-29) | GI50 (Hs-578T) | GI50 (IGROV-1) | GI50 (KM12) | GI50 (MDA-MB-231) | GI50 (NCI-H226) | GI50 (OVCAR-3) | GI50 (RPMI-8226) | GI50 (SK-OV-3) | GI50 (SN12C) | GI50 (U-251) | GI50 (UACC-257) | GI50 (SNB-75) | GI50 (A498)
1 | CC(C)CC1NC(=O)C(Cc2ccccc2)NC(=O)C(Cc2ccccc2)NC(=O)C(NC(=O)C(Cc2ccc(OCc3ccccc3)cc2)NC(=O)OCc2ccccc2)CCNC1=O (stereo not drawn) (Cbz-Y(Bn)[Dab]FFL; lactam 2-C; configuration not given here) | > 100 µM (inactive) | > 100 µM (inactive) | > 100 µM (inactive) | > 100 µM (inactive) | > 100 µM (inactive) | 40.2 µM (inactive) | > 100 µM (inactive) | > 100 µM (inactive) | 78.5 µM (inactive) | 64.7 µM (inactive) | 16.4 µM (inactive) | > 100 µM (inactive) | > 100 µM (inactive) | > 100 µM (inactive) | > 100 µM (inactive) | > 100 µM (inactive) | 29.4 µM (inactive) | 32.1 µM (inactive) |  | 
2 | O=c1oc2c/c(=C\c3ccc([N+](=O)[O-])cc3)c(=O)c3cccc1c3-2 | > 100 µM (inactive) | > 100 µM (inactive) | > 100 µM (inactive) | > 100 µM (inactive) | 38.6 µM (inactive) | 52 µM (inactive) | > 100 µM (inactive) | > 100 µM (inactive) | > 100 µM (inactive) | 83.6 µM (inactive) | > 100 µM (inactive) |  | 48.5 µM (inactive) | > 100 µM (inactive) | > 100 µM (inactive) | > 100 µM (inactive) | 28.6 µM (inactive) | > 100 µM (inactive) | 22 µM (inactive) | 
3 | O=c1[nH]nc(Cc2ccccc2)[nH]1 | > 100 µM (inactive) | > 100 µM (inactive) | > 100 µM (inactive) | > 100 µM (inactive) | > 100 µM (inactive) | > 100 µM (inactive) | > 100 µM (inactive) | > 100 µM (inactive) | > 100 µM (inactive) | > 100 µM (inactive) |  | > 100 µM (inactive) | > 100 µM (inactive) | > 100 µM (inactive) |  | > 100 µM (inactive) | > 100 µM (inactive) | > 100 µM (inactive) | > 100 µM (inactive) | > 100 µM (inactive)
4 | NNC1=Nc2ccc(Cl)cc2C(=S)N2CSCC12 (stereo not drawn) | > 100 µM (inactive) | > 100 µM (inactive) | > 100 µM (inactive) |  | > 100 µM (inactive) |  | > 100 µM (inactive) | > 100 µM (inactive) | > 100 µM (inactive) | 34.6 µM (inactive) | > 100 µM (inactive) | > 100 µM (inactive) | > 100 µM (inactive) | > 100 µM (inactive) | > 100 µM (inactive) | > 100 µM (inactive) | > 100 µM (inactive) | > 100 µM (inactive) | > 100 µM (inactive) | > 100 µM (inactive)
5 | CCOC(=O)CCC(C(=O)OCC)n1nnc2ccc(Nc3c(C)[n+]([O-])c4ccc(Cl)cc4[n+]3[O-])cc21 (stereo not drawn) | 28.6 µM (inactive) | 37.4 µM (inactive) | 17.1 µM (inactive) | 39.2 µM (inactive) | 36.1 µM (inactive) | 23.8 µM (inactive) | 52.7 µM (inactive) | > 100 µM (inactive) | 40.5 µM (inactive) | 91.2 µM (inactive) |  | 22.4 µM (inactive) | 32.1 µM (inactive) | 28.6 µM (inactive) | 60.1 µM (inactive) | 46.2 µM (inactive) | 46.3 µM (inactive) | 19.2 µM (inactive) | 31.4 µM (inactive) | > 100 µM (inactive)
6 | COc1ccc(/N=N/N2CCCC2)cc1 | 15.5 µM (inactive) | 17.9 µM (inactive) | 19.7 µM (inactive) | 30.1 µM (inactive) | > 100 µM (inactive) | 21.7 µM (inactive) | 40.2 µM (inactive) | 54.5 µM (inactive) | 14.9 µM (inactive) | 0.305 µM (active) | 20.5 µM (inactive) | > 100 µM (inactive) | 19.6 µM (inactive) | 26.1 µM (inactive) | > 100 µM (inactive) | 21.7 µM (inactive) | > 100 µM (inactive) | > 100 µM (inactive) |  | > 100 µM (inactive)
7 | Nc1ccc2nc3n(c2c1)C(c1c(F)cccc1F)SC3 (stereo not drawn) | > 100 µM (inactive) | > 100 µM (inactive) | > 100 µM (inactive) | 45.3 µM (inactive) | > 100 µM (inactive) |  | > 100 µM (inactive) | > 100 µM (inactive) | > 100 µM (inactive) | > 100 µM (inactive) | > 100 µM (inactive) |  | > 100 µM (inactive) | 66.5 µM (inactive) | > 100 µM (inactive) | > 100 µM (inactive) | > 100 µM (inactive) | 89.1 µM (inactive) | 80.4 µM (inactive) | > 100 µM (inactive)
